Drawing on patent US9662323B2, “Compounds having muscarinic receptor antagonist and beta2 adrenergic receptor agonist activity” (CHIESI FARMACEUTICI S.p.A., priority 2015, dated 2017), this text covers Ki for 17 compounds.

As usually defined, the Ki is a measure of affinity in units of concentration, obtained from inhibition or displacement.

Where only a bound is given, the exact number is not on record here.

The target of one experiment is T1, Human M3 receptor (Homo sapiens, UniProt P20309).
T1 construct: purchased Perkin Elmer
The experiment can be described thus: M3 Receptor Radioligand Binding Assay. Conditions: human M3 receptor membranes, [3H]-N-methyl scopolamine; read-out: M3 binding affinity (Ki class). The procedure, abridged:
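Radioligand binding with 0.5% (v/v) final DMSO, incubated 2 h at room temperature with shaking. Membranes were collected on GF/C filters pre-treated with 0.5% polyethyleneimine, washed four times with assay buffer, and counted by scintillation.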

The target in the next experiment is T2, Human β2 adrenoceptor (Homo sapiens, UniProt P07550).
T2 construct: purchased Perkin Elmer
The experiment can be described thus: β2 Adrenoceptor Radioligand Binding Assay. To be noted: human β2 adrenoceptor membranes, 125-I Cyanopindolol; read-out: B2 binding affinity (Ki class). The procedure, abridged: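 Membranes were incubated 1 h at room temperature in 25 mM HEPES, 0.5% BSA, 1 mM EDTA, 0.02% ascorbic acid, pH 7.4, with 0.5% DMSO final. Bound radioligand was collected by GF/C filtration and counted by scintillation. IC50 values from competition curves were converted to Ki by Cheng–Prusoff.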

T2 sequence (P07550 whole entry): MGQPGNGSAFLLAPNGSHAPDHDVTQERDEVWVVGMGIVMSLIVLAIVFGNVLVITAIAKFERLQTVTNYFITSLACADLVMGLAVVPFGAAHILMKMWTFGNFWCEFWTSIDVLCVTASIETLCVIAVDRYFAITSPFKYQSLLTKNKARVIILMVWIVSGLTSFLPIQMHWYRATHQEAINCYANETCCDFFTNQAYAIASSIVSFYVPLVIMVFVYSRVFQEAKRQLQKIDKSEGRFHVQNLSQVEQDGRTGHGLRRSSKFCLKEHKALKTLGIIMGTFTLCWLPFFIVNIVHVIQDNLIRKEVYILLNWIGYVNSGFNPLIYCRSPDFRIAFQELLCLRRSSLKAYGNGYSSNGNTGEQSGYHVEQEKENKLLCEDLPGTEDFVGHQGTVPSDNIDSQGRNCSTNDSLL
T1 sequence (P20309 whole entry): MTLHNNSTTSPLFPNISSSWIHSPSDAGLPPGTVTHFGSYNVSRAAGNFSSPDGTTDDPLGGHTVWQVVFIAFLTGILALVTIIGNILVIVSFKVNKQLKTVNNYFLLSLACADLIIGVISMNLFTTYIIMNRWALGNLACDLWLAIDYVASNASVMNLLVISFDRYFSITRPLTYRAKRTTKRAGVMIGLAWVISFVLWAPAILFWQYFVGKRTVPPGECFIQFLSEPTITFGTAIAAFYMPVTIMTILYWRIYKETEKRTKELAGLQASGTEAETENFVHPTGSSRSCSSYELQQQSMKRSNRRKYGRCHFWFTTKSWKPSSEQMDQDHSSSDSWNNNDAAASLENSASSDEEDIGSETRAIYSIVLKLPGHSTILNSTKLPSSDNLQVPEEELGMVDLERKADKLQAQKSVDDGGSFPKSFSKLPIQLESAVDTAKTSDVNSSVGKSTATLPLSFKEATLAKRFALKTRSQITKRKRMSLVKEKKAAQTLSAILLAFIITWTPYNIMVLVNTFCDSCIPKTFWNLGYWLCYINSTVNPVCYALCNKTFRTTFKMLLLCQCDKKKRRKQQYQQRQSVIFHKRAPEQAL

For the compound `Cc1ccc(CN(CCCNC[C@H](O)c2ccc(O)c3[nH]c(=O)ccc23)C(=O)Cc2ccc(CC(=O)N3CCC(C(=O)O[C@H]4CN5CCC4CC5)(c4ccccc4)CC3)cc2)cc1` [Compound 33, (R)-Quinuclidin-3-yl 1-(2-(4-(2-((3-(((R)-2-hydroxy-2-(8-hydroxy-2-oxo-1,2-dihydroquinolin-5-yl)ethyl)amino)propyl)(4-methylbenzyl)amino)-2-oxoethyl)phenyl)acetyl)-4-phenylpiperidine-4-carboxylate], the results for the Ki on Human M3 receptor and on Human β2 adrenoceptor were below 1 nM and 1 to 10 nM, respectively.
The corresponding values for `Cc1ccccc1CN(CCCNC[C@H](O)c1ccc(O)c2[nH]c(=O)ccc12)C(=O)Cc1ccc(CC(=O)N2CCC(C(=O)O[C@H]3CN4CCC3CC4)(c3ccccc3)CC2)cc1` [Compound 34, (R)-Quinuclidin-3-yl 1-(2-(4-(2-((3-(((R)-2-hydroxy-2-(8-hydroxy-2-oxo-1,2-dihydroquinolin-5-yl)ethyl)amino)propyl)(2-methylbenzyl)amino)-2-oxoethyl)phenyl)acetyl)-4-phenylpiperidine-4-carboxylate] are below 1 nM and below 1 nM.
With `Cc1cccc(CN(CCCNC[C@H](O)c2ccc(O)c3[nH]c(=O)ccc23)C(=O)Cc2ccc(CC(=O)N3CCC(C(=O)O[C@H]4CN5CCC4CC5)(c4ccccc4)CC3)cc2)c1` [Compound 35, (R)-Quinuclidin-3-yl 1-(2-(4-(2-((3-(((R)-2-hydroxy-2-(8-hydroxy-2-oxo-1,2-dihydroquinolin-5-yl)ethyl)amino)propyl)(3-methylbenzyl)amino)-2-oxoethyl)phenyl)acetyl)-4-phenylpiperidine-4-carboxylate], the inhibition constant Ki at Human M3 receptor and on Human β2 adrenoceptor was below 1 nM each time.
In the case of `O=C(Cc1ccc(CC(=O)N(CCCNC[C@H](O)c2ccc(O)c3[nH]c(=O)ccc23)Cc2ccccc2)cc1)N1CCC(C(=O)O[C@H]2CN3CCC2CC3)(c2ccccc2)CC1` [Compound 36, (R)-Quinuclidin-3-yl 1-(2-(4-(2-(benzyl(3-(((R)-2-hydroxy-2-(8-hydroxy-2-oxo-1,2-dihydroquinolin-5-yl)ethyl)amino)propyl)amino)-2-oxoethyl)phenyl)acetyl)-4-phenylpiperidine-4-carboxylate], the Ki at Human M3 receptor and at Human β2 adrenoceptor was below 1 nM in each case.
Regarding `O=C(Cc1ccc(CC(=O)N(CCCNC[C@H](O)c2ccc(O)c3[nH]c(=O)ccc23)Cc2cccc(C(F)(F)F)c2)cc1)N1CCC(C(=O)O[C@H]2CN3CCC2CC3)(c2ccccc2)CC1` [Compound 37, (R)-Quinuclidin-3-yl 1-(2-(4-(2-((3-(((R)-2-hydroxy-2-(8-hydroxy-2-oxo-1,2-dihydroquinolin-5-yl)ethyl)amino)propyl)(3-(trifluoromethyl)benzyl)amino)-2-oxoethyl)phenyl)acetyl)-4-phenylpiperidine-4-carboxylate], the values for the Ki on Human M3 receptor and at Human β2 adrenoceptor were below 1 nM and 1 to 10 nM, respectively.
As for `COc1cccc(CN(CCCNC[C@H](O)c2ccc(O)c3[nH]c(=O)ccc23)C(=O)Cc2ccc(CC(=O)N3CCC(C(=O)O[C@H]4CN5CCC4CC5)(c4ccccc4)CC3)cc2)c1` [Compound 38, (R)-Quinuclidin-3-yl 1-(2-(4-(2-((3-(((R)-2-hydroxy-2-(8-hydroxy-2-oxo-1,2-dihydroquinolin-5-yl)ethyl)amino)propyl)(3-methoxybenzyl)amino)-2-oxoethyl)phenyl)acetyl)-4-phenylpiperidine-4-carboxylate], the Ki on Human M3 receptor and at Human β2 adrenoceptor was below 1 nM in each case.
For `O=C(Cc1ccc(CC(=O)N(CCCNC[C@H](O)c2ccc(O)c3[nH]c(=O)ccc23)Cc2cccc(Oc3ccc(Cl)c(Cl)c3)c2)cc1)N1CCC(C(=O)O[C@H]2CN3CCC2CC3)(c2ccccc2)CC1` [Compound 40, (R)-Quinuclidin-3-yl 1-(2-(4-(2-((3-(3,4-dichlorophenoxy)benzyl)(3-(((R)-2-hydroxy-2-(8-hydroxy-2-oxo-1,2-dihydroquinolin-5-yl)ethyl)amino)propyl)amino)-2-oxoethyl)phenyl)acetyl)-4-phenylpiperidine-4-carboxylate], the Ki at Human M3 receptor was below 1 nM; at Human β2 adrenoceptor, 1 to 10 nM.
The corresponding values for `O=C(Cc1ccc(CC(=O)N(CCCNC[C@H](O)c2ccc(O)c3[nH]c(=O)ccc23)Cc2cccc(OCc3ccccc3)c2)cc1)N1CCC(C(=O)O[C@H]2CN3CCC2CC3)(c2ccccc2)CC1` [Compound 41, (R)-Quinuclidin-3-yl 1-(2-(4-(2-((3-(benzyloxy)benzyl)(3-(((R)-2-hydroxy-2-(8-hydroxy-2-oxo-1,2-dihydroquinolin-5-yl)ethyl)amino)propyl)amino)-2-oxoethyl)phenyl)acetyl)-4-phenylpiperidine-4-carboxylate] are below 1 nM and 1 to 10 nM.
In the same order, the values of `O=C(Cc1ccc(CC(=O)N(CCCNC[C@H](O)c2ccc(O)c3[nH]c(=O)ccc23)Cc2cccc(F)c2)cc1)N1CCC(C(=O)O[C@H]2CN3CCC2CC3)(c2ccccc2)CC1` [Compound 42, (R)-Quinuclidin-3-yl 1-(2-(4-(2-((3-fluorobenzyl)(3-(((R)-2-hydroxy-2-(8-hydroxy-2-oxo-1,2-dihydroquinolin-5-yl)ethyl)amino)propyl)amino)-2-oxoethyl)phenyl)acetyl)-4-phenylpiperidine-4-carboxylate] are below 1 nM and below 1 nM.
In the same order, the values of `O=C(Cc1ccc(CC(=O)N(CCCNC[C@H](O)c2ccc(O)c3[nH]c(=O)ccc23)Cc2ccccc2OCc2ccccc2)cc1)N1CCC(C(=O)O[C@H]2CN3CCC2CC3)(c2ccccc2)CC1` [Compound 43, (R)-Quinuclidin-3-yl 1-(2-(4-(2-((2-(benzyloxy)benzyl)(3-(((R)-2-hydroxy-2-(8-hydroxy-2-oxo-1,2-dihydroquinolin-5-yl)ethyl)amino)propyl)amino)-2-oxoethyl)phenyl)acetyl)-4-phenylpiperidine-4-carboxylate] are below 1 nM and 1 to 10 nM.
Turning to `O=C(Cc1ccc(CC(=O)N(CCCNC[C@H](O)c2ccc(O)c3[nH]c(=O)ccc23)Cc2ccccc2N2CCOCC2)cc1)N1CCC(C(=O)O[C@H]2CN3CCC2CC3)(c2ccccc2)CC1` [Compound 44, (R)-Quinuclidin-3-yl 1-(2-(4-(2-((3-(((R)-2-hydroxy-2-(8-hydroxy-2-oxo-1,2-dihydroquinolin-5-yl)ethyl)amino)propyl)(2-morpholinobenzyl)amino)-2-oxoethyl)phenyl)acetyl)-4-phenylpiperidine-4-carboxylate], the inhibition constant (Ki) at Human M3 receptor is below 1 nM; on Human β2 adrenoceptor, 1 to 10 nM.
The corresponding values for `O=C(Cc1ccc(CC(=O)N(CCCNC[C@H](O)c2ccc(O)c3[nH]c(=O)ccc23)Cc2ccccc2F)cc1)N1CCC(C(=O)O[C@H]2CN3CCC2CC3)(c2ccccc2)CC1` [Compound 45, (R)-Quinuclidin-3-yl 1-(2-(4-(2-((2-fluorobenzyl)(3-(((R)-2-hydroxy-2-(8-hydroxy-2-oxo-1,2-dihydroquinolin-5-yl)ethyl)amino)propyl)amino)-2-oxoethyl)phenyl)acetyl)-4-phenylpiperidine-4-carboxylate] are below 1 nM and below 1 nM.
The corresponding values for `O=C(Cc1ccc(CC(=O)N2CCC(C(=O)O[C@H]3CN4CCC3CC4)(c3ccccc3)CC2)cc1)NCCCNC[C@H](O)c1ccc(O)c2[nH]c(=O)ccc12` [Compound 46, (R)-Quinuclidin-3-yl 1-(2-(4-(2-((3-(((R)-2-hydroxy-2-(8-hydroxy-2-oxo-1,2-dihydroquinolin-5-yl)ethyl)amino)propyl)amino)-2-oxoethyl)phenyl)acetyl)-4-phenylpiperidine-4-carboxylate] are above 10 nM and above 10 nM.
In the same order, the values of `CN(CCCNC[C@H](O)c1ccc(O)c2[nH]c(=O)ccc12)C(=O)Cc1ccc(CC(=O)N2CCC(C(=O)O[C@H]3CN4CCC3CC4)(c3ccccc3)CC2)cc1` [Compound 47, (R)-Quinuclidin-3-yl 1-(2-(4-(2-((3-(((R)-2-hydroxy-2-(8-hydroxy-2-oxo-1,2-dihydroquinolin-5-yl)ethyl)amino)propyl)(methyl)amino)-2-oxoethyl)phenyl)acetyl)-4-phenylpiperidine-4-carboxylate] are 1 to 10 nM and 1 to 10 nM.
Take `O=C(c1ccc(OCCCCCCNC[C@H](O)c2ccc(O)c3[nH]c(=O)ccc23)cc1)N1CCC(C(=O)O[C@H]2CN3CCC2CC3)(c2ccccc2)CC1` [Compound 49, (R)-Quinuclidin-3-yl 1-(4-((6-(((R)-2-hydroxy-2-(8-hydroxy-2-oxo-1,2-dihydroquinolin-5-yl)ethyl)amino)hexyl)oxy)benzoyl)-4-phenylpiperidine-4-carboxylate]: the Ki on Human M3 receptor and on Human β2 adrenoceptor was below 1 nM in each case.
In the case of `O=C(c1ccc(OCCCCCCNC[C@H](O)c2ccc(O)c3[nH]c(=O)ccc23)cc1)N1CCC(C(=O)O[C@H]2CN3CCC2CC3)(c2ccc(Br)cc2)CC1` [Compound 50, (R)-Quinuclidin-3-yl 4-(4-bromophenyl)-1-(4-((6-(((R)-2-hydroxy-2-(8-hydroxy-2-oxo-1,2-dihydroquinolin-5-yl)ethyl)amino)hexyl)oxy)benzoyl)piperidine-4-carboxylate], the Ki on Human M3 receptor was above 10 nM; at Human β2 adrenoceptor, below 1 nM.
For the compound `O=C(c1ccc(OCCCCCCNC[C@H](O)c2ccc(O)c3[nH]c(=O)ccc23)cc1)N1CCC(C(=O)O[C@H]2CN3CCC2CC3)(c2ccc(Cl)cc2)CC1` [Compound 51, (R)-Quinuclidin-3-yl 4-(4-chlorophenyl)-1-(4-((6-(((R)-2-hydroxy-2-(8-hydroxy-2-oxo-1,2-dihydroquinolin-5-yl)ethyl)amino)hexyl)oxy)benzoyl)piperidine-4-carboxylate], the Ki is 1 to 10 nM at Human M3 receptor and below 1 nM at Human β2 adrenoceptor.
